This test addresses UptA (Bacillus subtilis, UniProt O31823). The test can be described thus: biochemical. It is filed as binding. Here is the method:
We explored the binding affinity of UptA toward C55-P by recording mass spectra for solutions containing 2.5 µM UptA and 0 to 40 µM C55-P in 200 mM ammonium acetate, 0.05% LDAO at pH 8.0. […] Further increase in the concentration of C55-P enhanced the intensity of the UptA:C55-P complex, together with the emergence of additional binding events (Fig. 2A). We deconvoluted the spectra ([34]) to extract mean relative intensities of bound and unbound forms of UptA in the spectral series.
To investigate the binding selectivity of UptA for monophosphate (C55-P) versus diphosphate (C55-PP) forms of the lipid carrier, we performed comparative binding assays. First, we recorded mass spectra for a mixture of UptA with increasing concentrations of C55-PP (SI Appendix, Fig. S3). […] We then fit the data to Hill equation to obtain an apparent Kd for this system.
UptA is a member of the DedA family of transporters whose cellular functions are potentially driven by proton-motive force and provide conditional fitness to bacteria under alkaline conditions ([25], [26], [36]). […] To this end, we equilibrated C55-P with UptA at a protein/ligand molar ratio of 1:4 in a buffer of the same composition but at pH 8.0 and 5.0. […] As a negative control, we tested for pH sensitivity of C55-P binding to MraY, the latter being the downstream enzyme in the peptidoglycan pathway that couples UM5 to C55-P. To this end, we equilibrated MraY and C55-P at a molar ratio of 1:4 in a buffer of pH 8.0 and pH 5.0.
Next, we investigated the chain length selectivity of UptA by testing its interaction with geranylgeranyl phosphate (C20-P), hexaprenyl phosphate (C30-P), and C55-P; the latter representing the native form of the lipid carrier in the model organisms B. subtilis and E. coli ([39]). For this experiment, we incubated 4 µM UptA with a 10-fold molar excess of C20-P, C30-P, and C55-P at pH 8.0 and recorded spectra under the same conditions. […] The length and stereochemistry of lipid tails can influence their interactions with membrane proteins ([40]).
Detailed experimental procedures are provided in SI Appendix. Briefly, UptA (wild type and mutants) was expressed in E. coli C43(DE3) cells (Lucigen) with GFP fusion on the C-terminus and solubilized from the membrane fraction by n-dodecyl-β-D-maltopyranoside (DDM). After purification by affinity chromatography, the GFP was cleaved by TEV protease and removed, and UptA was further purified by size-exclusion chromatography in a buffer containing 20 mM Tris-HCl (pH 8.0), 200 mM NaCl, 0.02% DDM. Before measurements, proteins were buffer-exchanged into 0.05% LDAO, 200 mM ammonium acetate at the desired pH using a centrifugal buffer exchange device (Micro Bio-Spin 6, Bio-Rad). Stock solutions of lipids were prepared from chloroform/methanol solution by evaporating aliquots of known volume in a SpeedVac. After drying, the lipid films were weighed and resuspended to a final concentration of 0.5 mM in 200 mM ammonium acetate and 0.05% LDAO by vertexing.

From PMC11474028, “Lipopeptide antibiotics disrupt interactions of undecaprenyl phosphate with UptA” (Proceedings of the National Academy of Sciences of the …, 2024) come the findings set out here.

“Also recorded” adds a separate entry of the source.

Chain of UptA (O31823 whole entry): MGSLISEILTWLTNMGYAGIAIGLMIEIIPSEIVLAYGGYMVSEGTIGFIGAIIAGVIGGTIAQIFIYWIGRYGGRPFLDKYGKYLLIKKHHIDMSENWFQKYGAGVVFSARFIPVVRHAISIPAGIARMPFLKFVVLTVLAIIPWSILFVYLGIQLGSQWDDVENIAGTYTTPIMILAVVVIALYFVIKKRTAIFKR

Take `CC(C)=CCC/C(C)=C/CC/C(C)=C/CC/C(C)=C\CC/C(C)=C\CC/C(C)=C\CC/C(C)=C\CC/C(C)=C\CC/C(C)=C\CC/C(C)=C\CC/C(C)=C\COP(=O)(O)O` [C55-P, undecaprenyl phosphate]: the “protein/ligand molar ratio at which relative intensity of first binding event plateaued” value (2.5 µM UptA, 0 to 40 µM C55-P, pH 8.0, 0.05% LDAO) was ~ 4. The “binding to UptA by lipid chain length (in words)” value (4 µM UptA, 10-fold molar excess (40 µM) of lipid, pH 8.0, 200 mM ammonium acetate, 0.05% LDAO) was “highest intensity of protein/ligand complexes; also recorded: more favorably than C55-PP, C30-P, and C20-P”. Under “equimolar UptA and C55-P, 200 mM ammonium acetate, 0.05% LDAO, pH 8.0”, the “binding to UptA, equimolar mixture (in words)” value was “high-affinity binding interactions”. Further, the Kd (native MS, 2.5 µM UptA, 0 to 40 µM C55-P, 200 mM ammonium acetate, 0.05% LDAO, pH 8.0, Hill equation fit to mean relative intensities of three replicates, 95% CI: C55-P 5.0 to 6.4 µM, C55-PP 9.5 to 32.8 µM, read-out: apparent Kd for the binding of one ligand molecule (1×) to UptA) stood at 5.7 µM. In addition, the “selectivity of UptA for C55-P versus C55-PP (in words)” value (native MS, 200 mM ammonium acetate, pH 8, 0.05% LDAO) is “UptA is more selective toward C55-P than C55-PP”. Also, the “pH sensitivity of C55-P binding to UptA (in words)” value (pH 8.0 vs pH 5.0) was “environmental pH modulates the interaction of C55-P with UptA; also recorded: less C55-P binding to UptA in the presence of excess H^+”. In addition, the “number of C55-P molecules in complex with UptA dimer” value (protein/ligand molar ratio 1:4, pH 8.0) is listed as “up to two”. The “factor by which ligand-bound UptA peaks are more intense at pH 8.0 compared to pH 5.0” value (protein/ligand molar ratio 1:4, pH 8.0 vs pH 5.0, 200 mM ammonium acetate, 0.05% LDAO) was 3. Also, the “C55-P binding to UptA dimer versus monomer (in words)” value (wild type, protein/ligand molar ratio 1:4, pH 8.0) is on record as “dimer interacts more favorably with C55-P than the monomer UptA”.
